Results reported in paper PMC10630452, “The tumor-enriched small molecule gambogic amide suppresses glioma by targeting WDR1-dependent cytoskeleton remodeling” (Signal Transduction and Targeted Therapy, 2023).

Experiments:
Format in all cases: cell-based
[1] = system: BGC-823-SLC cells (GCSC); assay: IC50 assay (MTS cell viability); conditions: 48 h
Experimental: (§1) Four PDC lines (T12-1, T12-2, T2-4, T19-1) obtained from the Beijing Tiantan Hospital[53] and three GSC lines (GSC2, U87MG-SLC, U251-SLC) were established and verified in our previous work.[17] Two GCSC lines were kindly provided by Dr. Ran.[54] These cell lines were cultured in neurobasal medium (Gibco) containing 2% B27 (Gibco), 1% 100 × Antibiotic-Antimycotic (Gibco), 2 mmol/L L-glutamine (catalog SH30034.01, HyClone), 20 ng/mL bFGF (catalog 100-18B-50UG, PeproTech), 20 ng/mL EGF (catalog AF-100-15-100UG, PeproTech), and 10 μg/mL heparin (Sigma‒Aldrich). H1-NSCs obtained from D.Q. Pei’s laboratory (Guangzhou Institutes of Biomedicine and Health, Chinese Academy of Sciences, Guangzhou, China), were cultured in the same medium as the PDCs, with the addition of 1% N-2 supplement (Gibco, Thermo Fisher Scientific). The human astrocyte (HA) cell line was purchased from ScienCell and cultured in commercial astrocyte medium (catalog 1801, ScienCell) supplemented with 1% AGS (ScienCell), 2% FBS (ScienCell) and 1% P/S solution (ScienCell). Regarding the GC cell lines, U87MG cells were purchased from the American Type Culture Collection (ATCC), and U251 cells were purchased from the Cell Center of Peking Union Medical College. The GC cells were cultured in DMEM (Gibco) supplemented with 10% FBS (ScienCell) and 1% 100 × Antibiotic-Antimycotic.
(§2) Cells were seeded in 96-well plates and treated with 0, 0.03, 0.1, 0.3, 1, 3, 10, or 30 μM GA-amide (Santa Cruz) in triplicate. After 48 h of incubation, cell viability was quantified using the MTS assay, and the GA-amide cytotoxicity curve was estimated using GraphPad Prism.

[2] = system: GSC2 cells (GSC); assay: IC50 assay (MTS cell viability); conditions: 48 h
Experimental: as §1, §2

[3] = system: H1P56NSC (H1-NSCs); assay: IC50 assay (MTS cell viability); conditions: Homo sapiens, normal cells (NC), 48 h
Experimental: as §1, §2

[4] = system: HA (human astrocyte) cells; assay: IC50 assay (MTS cell viability); conditions: normal cells (NC), 48 h
Experimental: as §1, §2

[5] = system: SNU5-SLC cells (GCSC); assay: IC50 assay (MTS cell viability); conditions: 48 h
Experimental: as §1, §2

[6] = system: T12-1 cells (PDC); assay: IC50 assay (MTS cell viability); conditions: Homo sapiens, T12-1, PDC, 48 h
Experimental: as §1, §2

[7] = system: T12-2 cells (PDC); assay: IC50 assay (MTS cell viability); conditions: Homo sapiens, T12-2, PDC, 48 h
Experimental: as §1, §2

[8] = system: T19-1 cells (PDC); assay: IC50 assay (MTS cell viability); conditions: Homo sapiens, T19-1, PDC, 48 h
Experimental: as §1, §2

[9] = system: T2-4 cells (PDC); assay: IC50 assay (MTS cell viability); conditions: Homo sapiens, T2-4, PDC, 48 h
Experimental: as §1, §2

[10] = system: U251 cells (GC); assay: IC50 assay (MTS cell viability); conditions: Homo sapiens, U-251, 48 h
Experimental: as §1, §2

[11] = system: U251-SLC cells (GSC); assay: IC50 assay (MTS cell viability); conditions: 48 h
Experimental: as §1, §2

[12] = system: U87MG cells (GC); assay: IC50 assay (MTS cell viability); conditions: Homo sapiens, U-87 MG, 48 h
Experimental: as §1, §2

[13] = system: U87MG-SLC cells (GSC); assay: IC50 assay (MTS cell viability); conditions: 48 h
Experimental: as §1, §2

[14] = system: PDCs and GSCs; assay: Transwell cell invasion assay; conditions: 0.1 μM and 0.3 μM, 48–72 h
Experimental: First, cells were starved for 12 h. The top surface of the membrane in the upper transwell chamber was coated with Matrigel (dilution ratio, 1:100, Corning, USA) by incubation for 30 min. Cells were plated in the upper chamber with serum-free neurobasal medium containing the corresponding concentration of GA-amide, and 600 μL of neurobasal medium containing 10% FBS and the same concentration of GA-amide was added to the lower chamber for 24–72 h of culture. Next, the cells in the transwell chamber were fixed with 4% paraformaldehyde for 20 min. After noninvaded cells in the upper chamber were removed by wiping, the remaining cells were stained with 1% crystal violet staining solution for 20 min and washed with double-distilled water. Finally, cell invasion was evaluated by microscopy.

[15] = biological target: T1, TrkA (Homo sapiens, UniProt P04629); assay: Western blot of TrkA phosphorylation in GSCs; conditions: GSC2 and U87MG-SLC cells, 4 hours
T1 construct: endogenous in cells; host or cells: GSC2 and U87MG-SLC glioma stem cells
Experimental: Proteins in the samples were separated on SDS–polyacrylamide gels and transferred to nitrocellulose membranes (Amersham, Sweden). After blocking with 5% skim milk, the membranes were incubated with the indicated primary antibodies listed in Supplementary Table 3 overnight. After washing with 1 × TBST three times, the membranes were incubated with secondary antibodies, and protein bands were detected by using ECL reagent.
Supplementary Fig. 5 TrkA was not the functional target for GA-amide to inhibit glioma. a Western blot analyses of the TrkA and p-TrkA expression in GSC2 and U87MG-SLC cells with GA-amide treatment for 4 hours. b Western blot analyses of the p-TrkA expression in GSC2 with GA-amide treatment for different times. c, d The combination effects of GA-amide with GW441756, a TrkA inhibitor, or with K252a, an inhibitor of Trk family in GSC2 (c) and U87MG-SLC (d) (48 hours, n = 3).

T1 sequence (P04629 33-796): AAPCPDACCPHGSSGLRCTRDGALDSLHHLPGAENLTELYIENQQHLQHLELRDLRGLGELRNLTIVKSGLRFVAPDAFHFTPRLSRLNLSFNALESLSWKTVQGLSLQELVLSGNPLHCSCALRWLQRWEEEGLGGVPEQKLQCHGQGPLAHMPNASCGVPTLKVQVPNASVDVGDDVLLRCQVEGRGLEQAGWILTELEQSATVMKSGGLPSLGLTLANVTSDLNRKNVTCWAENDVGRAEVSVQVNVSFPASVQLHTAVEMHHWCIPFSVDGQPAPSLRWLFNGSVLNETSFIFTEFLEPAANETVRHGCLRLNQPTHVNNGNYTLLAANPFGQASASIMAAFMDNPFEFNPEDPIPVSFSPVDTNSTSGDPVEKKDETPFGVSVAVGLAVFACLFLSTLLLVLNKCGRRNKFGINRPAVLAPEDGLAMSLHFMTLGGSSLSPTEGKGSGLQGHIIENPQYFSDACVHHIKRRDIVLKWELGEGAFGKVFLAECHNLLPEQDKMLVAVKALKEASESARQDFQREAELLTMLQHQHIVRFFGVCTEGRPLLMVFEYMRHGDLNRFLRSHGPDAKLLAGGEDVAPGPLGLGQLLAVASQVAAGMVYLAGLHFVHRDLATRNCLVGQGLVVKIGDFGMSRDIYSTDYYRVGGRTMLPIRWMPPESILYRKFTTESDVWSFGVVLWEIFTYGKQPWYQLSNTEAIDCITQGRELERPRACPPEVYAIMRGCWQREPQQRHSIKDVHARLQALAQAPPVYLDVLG

**Q.** Which results are given for `CC(C)=CCC[C@]1(C)C=Cc2c(O)c3c(c(CC=C(C)C)c2O1)O[C@]12C(=C[C@@H]4CC1C(C)(C)O[C@@]2(C/C=C(/C)C(N)=O)C4=O)C3=O` [GA-amide, gambogic amide]?
**A.** IC50 [1]: 870 nM; IC50 [2]: 133 nM; IC50 [3]: 941 nM; IC50 [4]: 1030 nM; IC50 [5]: 962 nM; IC50 [6]: 249 nM; IC50 [7]: 286 nM; IC50 [8]: 277 nM; IC50 [9]: 167 nM; IC50 [10]: 168 nM; IC50 [11]: 214 nM; IC50 [12]: 231 nM; IC50 [13]: 399 nM; number of invading cells (transwell) [14]: significant decrease in the number of invading PDCs and GSCs; TrkA phosphorylation [15]: TrkA was phosphorylated at Y751 and Y490 in GSCs
